Assay results from patent US20080206311A1, “Sucrase Activity Inhibitor, Glucoamylase Activity Inhibitor and Food and Feed Containing the Same” (MITSUI SUGAR CO., LTD., priority 2005, published 2008).
“Also recorded” adds a separate entry of the source.

How the values were obtained:
Assay type in all cases: biochemical
[1] = biological target: T1, sucrase (Rattus norvegicus, UniProt P23739); experiment: Sucrase activity inhibition with rat small-intestinal enzyme liquid, substrate sucrose
T1 construct: This liquid contained a mixture of enzymes present in small intestine, such as sucrose, glucoamylase, maltase, and isomaltase; tissue Sigma Corporation; host or cells: rat small intestine (acetone powder), buffer extract, unpurified
T1 sequence (P23739 whole entry): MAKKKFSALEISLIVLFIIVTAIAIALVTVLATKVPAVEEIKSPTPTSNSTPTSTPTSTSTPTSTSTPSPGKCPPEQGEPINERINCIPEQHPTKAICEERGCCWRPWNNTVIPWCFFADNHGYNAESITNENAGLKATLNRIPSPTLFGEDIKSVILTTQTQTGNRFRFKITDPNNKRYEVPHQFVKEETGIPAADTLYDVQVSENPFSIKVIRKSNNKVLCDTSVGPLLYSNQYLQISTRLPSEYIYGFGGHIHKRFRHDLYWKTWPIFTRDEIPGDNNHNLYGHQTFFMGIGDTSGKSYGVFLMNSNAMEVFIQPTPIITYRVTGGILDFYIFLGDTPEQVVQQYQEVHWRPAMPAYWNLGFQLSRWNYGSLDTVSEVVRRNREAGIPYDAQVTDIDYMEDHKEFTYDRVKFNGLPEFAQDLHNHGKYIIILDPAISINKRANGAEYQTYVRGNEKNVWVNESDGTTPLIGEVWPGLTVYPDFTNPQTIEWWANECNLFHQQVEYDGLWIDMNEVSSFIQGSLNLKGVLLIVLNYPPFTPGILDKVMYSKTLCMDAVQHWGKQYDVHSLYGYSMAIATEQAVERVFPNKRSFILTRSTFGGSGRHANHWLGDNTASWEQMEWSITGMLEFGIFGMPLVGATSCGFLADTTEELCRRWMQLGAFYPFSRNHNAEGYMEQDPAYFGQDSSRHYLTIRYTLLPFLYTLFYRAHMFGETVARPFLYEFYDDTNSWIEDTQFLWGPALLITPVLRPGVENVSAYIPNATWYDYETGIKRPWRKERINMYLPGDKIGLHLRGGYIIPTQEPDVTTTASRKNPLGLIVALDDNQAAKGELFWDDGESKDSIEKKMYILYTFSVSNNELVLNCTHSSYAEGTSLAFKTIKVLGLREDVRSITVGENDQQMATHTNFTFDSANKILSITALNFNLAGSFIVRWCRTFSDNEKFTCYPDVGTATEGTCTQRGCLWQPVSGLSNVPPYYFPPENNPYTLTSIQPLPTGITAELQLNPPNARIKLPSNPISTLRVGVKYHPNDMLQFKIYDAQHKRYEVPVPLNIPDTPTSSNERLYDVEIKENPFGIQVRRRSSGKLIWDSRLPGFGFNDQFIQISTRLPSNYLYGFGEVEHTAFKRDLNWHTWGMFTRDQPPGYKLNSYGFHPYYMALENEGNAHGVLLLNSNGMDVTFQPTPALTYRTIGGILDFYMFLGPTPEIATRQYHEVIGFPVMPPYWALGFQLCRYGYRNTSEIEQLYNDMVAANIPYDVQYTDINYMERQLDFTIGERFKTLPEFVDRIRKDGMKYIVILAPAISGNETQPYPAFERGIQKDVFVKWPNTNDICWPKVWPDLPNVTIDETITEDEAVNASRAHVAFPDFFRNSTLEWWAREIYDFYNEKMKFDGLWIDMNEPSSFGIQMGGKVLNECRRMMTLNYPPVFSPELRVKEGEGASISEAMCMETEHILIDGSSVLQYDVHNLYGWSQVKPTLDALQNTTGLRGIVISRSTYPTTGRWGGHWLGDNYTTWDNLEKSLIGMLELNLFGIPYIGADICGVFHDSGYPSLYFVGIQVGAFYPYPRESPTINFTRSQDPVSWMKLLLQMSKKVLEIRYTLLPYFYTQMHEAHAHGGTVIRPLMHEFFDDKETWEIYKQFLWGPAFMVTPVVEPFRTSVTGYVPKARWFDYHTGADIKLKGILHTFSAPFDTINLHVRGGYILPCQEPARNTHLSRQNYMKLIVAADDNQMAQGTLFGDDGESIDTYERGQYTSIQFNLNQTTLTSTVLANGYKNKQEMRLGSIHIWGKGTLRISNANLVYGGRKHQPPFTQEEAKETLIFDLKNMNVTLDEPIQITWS
Protocol: Palatinose (trade name: Palatinose IC, ex Shin Mitsui Sugar Co., Ltd.) (test sample) was used as a sample for investigating each enzyme activity inhibitory effect. Maltose and sucrose were used as substrates for maltase and sucrose, respectively. The test sample and the substrates were dissolved in 0.1 M phosphate buffer (pH 6.8) at the concentration shown in Table 1 below to prepare test solutions (Solutions 4 and 5). Also, the test sample or the substrates were dissolved in 0.1 M phosphate buffer (pH 6.8), respectively to at the concentration shown in Table 1 below to prepare control solutions (Solution 1 for the test sample and Solutions 2 and 3 for the substrates).
(§1) Two grams of rat small-intestinal acetone powder (ex Sigma Corporation) were dissolved in 20 ml of 0.1 M phosphate buffer (pH 6.8), left standing one day at 5° C., and subsequently subjected to centrifugal separation (8000 rpm×15 min.). The supernatant was filtered through a 0.8 μm membrane filter to obtain a small-intestinal enzyme liquid. This liquid contained a mixture of enzymes present in small intestine, such as sucrose, glucoamylase, maltase, and isomaltase.
(§2) Each 0.25 ml of the small-intestinal enzyme liquid was added to each 5 ml of Solutions 1 through 5 and placed in a water bath at 37° C. to allow them to react for 60 min. while shaken at 60 strokes/min. After the reaction, they were heated in a boiling water bath for 3 min. for inactivation of the enzymes.
(§3) The glucose concentration in each solution after the reaction was measured using the F-kit Glucose (ex Roche). A liberated glucose concentration (g/l) was calculated by subtracting the blank value (0.1 M phosphate buffer alone) and the concentration of glucose originally contained in the test sample from each glucose concentration measured.
(§4) Next, each of the liberated glucose concentration was input in the following equation to obtain decomposition inhibition ratio for maltase and sucrose. In the present tests, the substrates and the inhibitors were decomposed by enzymes present in the small-intestinal enzyme liquid. However, the enzymes decomposing the substrates are different from the enzymes decomposing the inhibitors. The decomposition inhibition ratio was determined as a measure for the inhibitory effect. When the inhibitor was added, the glucose concentration was lower than that seen when the substrate alone was reacted. A higher decomposition inhibition ratio means a stronger inhibitory effect.
(§5) Decomposition inhibition ratio,%={(A+B)−(AB)}+(A+B)×100 [Equation 1]
(§6) wherein (A+B) indicates a sum of a liberated glucose concentration in the control solution containing the test sample alone after the reaction (A) and a liberated glucose concentration in the control solution containing the substrate alone after the reaction (B); and (AB) indicates a liberated glucose concentration in the test solution containing the test sample (A) and the substrate (B), after the reaction.
The procedures in Example 1 were repeated with the exception that the test solutions contained 5% of sucrose and 0.5%, 1.0%, 3.0% or 5.0% of palatinose to examine intensity of the sucrose activity inhibition. A control solution contained 5% of sucrose in 0.1 M phosphate buffer (pH 6.8).
The procedures in Example 1 were repeated with the exception that palatinit and palatinose were used as test samples and sucrose was used as a substrate. The test samples and the substrate were dissolved in 0.1 M phosphate buffer (pH 6.8) to attain the concentration shown in Table 3 to thereby prepare two test solutions. Besides, each one of the test samples or the substrate was dissolved in 0.1 M phosphate buffer (pH 6.8) to attain the concentration shown in Table 3 to thereby prepare control solutions. Each 5 ml of the aforementioned test solutions or the control solutions was subjected to the enzymatic reaction according to the same procedures as in Example 1. The glucose concentration and the fructose concentration were measured. […]

[2] = system: glucoamylase; experiment: Glucoamylase activity inhibition with rat small-intestinal enzyme liquid, substrate soluble starch; conditions: 5% soluble starch + 5% test sample
Protocol: as §1, §2, §3, §4, §5, §6
The procedures in Example 1 were repeated with the exception that palatinose and palatinit were used as a test sample and soluble starch was used as a substrate. The test samples and the substrate were dissolved in 0.1 M phosphate buffer (pH 6.8) to attain the concentration shown in Table 6 to thereby prepare two test solutions. Besides, each of the test samples or the substrate was dissolved in 0.1 M phosphate buffer (pH 6.8) to attain the concentration shown in Table 6 to thereby prepare control solutions. Each 5 ml of the aforementioned test solutions and the control solutions was subjected to the enzymatic reaction according to the same procedures as in Example 1 and the liberated glucose concentration and the decomposition inhibition ratio were measured.
The procedures in Example 1 were repeated with the exception that trehalulose was used as a test sample and soluble starch was used as a substrate. The test sample and the substrate were dissolved in 0.1 M phosphate buffer (pH 6.8) to attain the concentration shown in Table 9 to thereby prepare a test solution. Besides, the test sample or the substrate was dissolved in 0.1 M phosphate buffer (pH 6.8) to attain the concentration shown in Table 9 to thereby prepare control solutions. Each 5 ml of the aforementioned test solution and the control solutions was subjected to the enzymatic reaction according to the same procedures as in Example 1 and the liberated glucose concentration and the decomposition inhibition ratio were measured.
The procedures in Example 1 were repeated with the exception that trehalose was used as a test sample and soluble starch was used as a substrate. […]

[3] = biological target: T1, sucrase; experiment: Ratio of inhibitor to the substrate sucrose (Examples 8, 9); conditions: 10 min
Protocol: Twenty samples with the concentrations shown in Table 11, Samples A-1 through A-20, were dissolved in 0.1 M phosphate buffer (pH 6.8) to a final volume of 2.5 ml.
This was made in the same way as in the preparation of a small intestinal enzyme solution in Example 1.
Each 0.15 ml of a small intestinal enzyme solution was added to each 2.5 ml of the aforementioned 20 samples, each mixture, and placed in a water bath at 37° C. to allow reaction for 10 minutes while shaken at 60 strokes/min. At the end of the reaction, the mixture was heated in a boiling water bath for 3 min. for inactivation of the enzyme. As a blank, 0.15 ml of the intestinal enzyme solution was added to 0.1 M phosphate buffer (pH 6.8) and the enzyme was inactivated immediately.
After the reaction, the glucose concentration in each solution was measured using the F-kit Glucose (ex Roche) as in Example 1.
The procedures in Example 8 were repeated with the exception that twenty samples with the concentrations shown in Table 12, Samples B-1 through B-20, were dissolved in 0.1 M phosphate buffer (pH 6.8) to a final volume of 2.5 ml.

[4] = 5% sucrose + 5% test sample, Example 3 / Test Example 2

Compound: OC[C@H]1O[C@H](OC[C@H]2OC(O)(CO)[C@@H](O)[C@@H]2O)[C@H](O)[C@@H](O)[C@@H]1O (stereo partly drawn) [palatinose, isomaltulose]
- Intensity of the sucrase activity inhibition, dependence on concentration (FIG. 1) ([1]; 5% sucrose + 0.5%, 1.0%, 3.0% or 5.0% palatinose): inhibits sucrose activity depending upon its concentration
- Sucrase activity inhibitory effect (in words) ([1]; 5% sucrose + 5% test sample): a sucrose activity inhibitory effect; also recorded: have a sucrose inhibitory effect
- Liberated glucose concentration ([1]; 5% sucrose + 5% test sample, 37° C., 60 min, Example 1 / Test Example 1): 0.803 ± 0.055 g/L
- Decomposition inhibition ratio, %, against sucrase ([1]; 5% sucrose + 5% test sample, Equation 1, Example 1 / Test Example 1): 24%
- Decomposition inhibition ratio, %, against sucrase [1, 4]: 29%
- Liberated fructose concentration [1, 4]: 1.05 g/L
- Liberated glucose concentration [1, 4]: 0.79 g/L
- Glucoamylase activity inhibitory effect (in words) [2]: have the glucoamylase activity inhibitory effect
- Decomposition inhibition ratio, %, against glucoamylase ([2]; Example 4): 26%
- Liberated glucose concentration ([2]; Example 4): 3.611 g/L
- Inhibitory effect on the decomposition of sucrose (FIG. 5) ([3]; sucrose concentration 0.5%, palatinose 5, 10, 50% relative to sucrose): not clear
- Ratio of palatinose added relative to the weight of sucrose at which decomposition of sucrose was suppressed (FIG. 4) ([3]; sucrose concentrations 3%, 5%, 10% and 15%): ≥ 10%
